Laboratory results: PMC4919643, “Intestinally-targeted TGR5 agonists equipped with quaternary ammonium have an improved hypoglycemic effect and reduced gallbladder filling effect” (Scientific Reports, 2016)
Values after ≈ are worked out from the molar mass of the structure shown. One block for each molecule: values may come before it.

Experiments:
[1] = test system: ICR mice; design: method as in PMID 25710631; details: normal mice (ICR mice); cited from earlier work
[2] = test system: ob/ob mice; assay: Hypoglycemic effect of 3 in diabetic model ob/ob mice; type: in vivo, mouse
[3] = target: T1, human TGR5 (Homo sapiens, UniProt Q8TDU6); assay: In vitro TGR5 reporter gene assay (hTGR5/CRE/HEK293)
T1 sequence (Q8TDU6 1-330): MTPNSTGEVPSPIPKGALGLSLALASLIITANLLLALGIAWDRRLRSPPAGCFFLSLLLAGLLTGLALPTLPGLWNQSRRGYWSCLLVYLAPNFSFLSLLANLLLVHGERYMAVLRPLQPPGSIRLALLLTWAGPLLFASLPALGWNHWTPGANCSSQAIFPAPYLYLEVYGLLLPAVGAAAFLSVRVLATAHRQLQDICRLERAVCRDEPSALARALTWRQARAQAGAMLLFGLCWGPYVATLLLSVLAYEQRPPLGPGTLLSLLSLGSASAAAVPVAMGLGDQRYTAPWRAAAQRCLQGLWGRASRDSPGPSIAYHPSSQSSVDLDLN

[4] = In vitro microsomal stability assay (mice); type: in vitro ADME; details: mice liver microsomes
Procedure: (§1) Acetonitrile (containing 0.1% formic acid; C (MeOH with 1% TFA). Flow rate: 0.6 […]
(§2) Data system: Masslynx 4.1 (Waters).
(§3) In vitro microsomal stability assay. The test compound was dissolved in DMSO and diluted to the desired concentration with DMSO and 0.1% aqueous BSA. Liver microsomes were incubated in a 96-well plate containing 0.1 M Tris buffer (pH 7.4), 0.33 mg/mL microsomal protein, 0.1 mM test compound, 5.0 mM MgCl2, 0.005% BSA, and 1.0 mM NADPH. Incubations were conducted at 37 °C. An aliquot was removed at each time point and the enzymatic reaction was stopped by protein precipitation in MeOH. The loss of the test compound was determined by LC-MS/MS. The intrinsic clearance (CLint, mL/min/g) was calculated from the following equation: […]
(§4) Where k (min-1) is the slope of the line of the natural log of the percentage parent remaining versus the time of incubation; P is the microsomal protein concentration

[5] = target: T2, mouse TGR5 (Mus musculus, UniProt Q80SS6); assay: In vitro TGR5 reporter gene assay (mTGR5/CRE/HEK293)
T2 sequence (Q80SS6 1-329): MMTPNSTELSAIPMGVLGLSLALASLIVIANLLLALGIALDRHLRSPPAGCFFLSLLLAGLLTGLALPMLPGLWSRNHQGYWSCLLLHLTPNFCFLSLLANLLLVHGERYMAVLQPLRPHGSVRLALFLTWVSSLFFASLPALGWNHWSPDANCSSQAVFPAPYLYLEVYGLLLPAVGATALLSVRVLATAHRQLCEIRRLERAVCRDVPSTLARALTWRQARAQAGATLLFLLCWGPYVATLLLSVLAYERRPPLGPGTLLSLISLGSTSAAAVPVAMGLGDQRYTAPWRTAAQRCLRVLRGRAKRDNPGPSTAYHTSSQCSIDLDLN

[6] = Caco-2 permeability determination; type: in vitro ADME; details: human
Procedure: (§5) Caco-2 permeability determination. Caco-2 permeability determination was carried out […]
(§6) Caco-2 cells were obtained from the ATCC (Cat#HTB-37) and maintained in Dulbecco’s modified Eagle’s Medium containing 10% fetal bovine serum, 1% glutamine, 1% nonessential amino acids, 100 μg/mL streptomycin, and 100 U/mL penicillin.
(§7) CO2 and 90% relative humidity environment. Caco-2 cells were passaged every 7 days at a ratio of 1:10. Cells were used between passages 30 and 40. After 21 days of culture, the integrity of the cell monolayer was verified by measuring the transepithelial electrical […]
(§8) Drug transport from the apical side to the basolateral side (A-B) and from the basolateral side to the apical side was measured simultaneously under the same condition.
(§9) Propranolol and atenolol were used as the […] control, respectively.
(§10) Digoxin was used as the positive control for Pgp-mediated drug efflux. In brief, the method was as follows. After washing the monolayer with HBSS three times, the compounds were diluted and added to the appropriate well (pH 6.8 for apical side and pH […]
(§11) 7.4 for basolateral side). […] Samples were […]
(§12) collected from the donor side at 5 and 95 min, and from the receiver side at 35 and 95 min post-incubation. The concentration of samples was measured by LC-MS/MS. The Papp was calculated from the following equation:
(§13) Papp = (VA/(SA×T))×([drug]acceptor/ [durg]initial donor )
(§14) Where VA is the volume of the acceptor well, SA is the surface area of the membrane, T is the total transport time, [drug]acceptor is the drug level at the acceptor side, and [drug]initial donor is the drug level at the donor side at T = 0. […]

[7] = In vitro microsomal stability assay (human); type: in vitro ADME; details: human liver microsomes
Procedure: as §1, §2, §3, §4

[8] = test system: ICR mice; assay: Gallbladder filling assay in ICR mice; type: in vivo, mouse; details: once a day oral dose 50 mg/kg
Procedure: Figure 4 (A) Relative gallbladder area and (B) relative bile weight after once a day oral dose. After the OGTT experiment, mice were refed for 3 h, the gallbladder was removed and the area measured using a vernier caliper. The relative gallbladder area was calculated from the length multiplied by the width of the gallbladder. Bile weight was measured using analytical balances. *p < 0.05; **p < 0.01; ***p < 0.001. Error bar indicates SEM.
Caco-2 permeability determination. Caco-2 permeability determination was carried out according to (Eur. J. Med. Chem. 2014, 82, 1-15). […]
Drug transport from the apical side to the basolateral side (A-B) and from the basolateral side to the apical side was measured simultaneously under the same condition. […]
Digoxin was used as the positive control for Pgp-mediated drug efflux. […] The concentration of samples was measured by LC-MS/MS. The Papp was calculated from the following equation: […]
(§15) mice (n = 7-8) 90 min prior to the oral glucose load (4 g/kg). Blood glucose levels were measured via blood drops obtained by clipping the tail of the mice using an Accu-Chek Advantage II Glucose Monitor (Roche, Indianapolis, IN, USA) before compound dosing and 0, 15, 30, 60, and 120 min after the glucose load. The area under the concentration−time curve from 0 to 120 min (AUC0−120 min, Glu) of blood glucose after the glucose load was calculated by the trapezoidal rule. […]

[9] = test system: ICR mice; assay: Oral glucose tolerance test (OGTT) in ICR mice; type: in vivo, mouse
Procedure: Blood glucose levels were measured berefore and after glucose loading. *p < 0.05, **p < 0.01 vs. control. Error bar indicateds SEM (standard error of the mean). […]
Oral glucose tolerance test (OGTT) and gallbladder filling assay in ICR mice. 100 […]
as §15

[10] = test system: Caco-2 cells; assay: Caco-2 permeability determination; type: in vitro ADME
Procedure: as §5, §6, §7, §8, §9, §10, §11, §12, §13, §14

[11] = Solubility in water determined by LC-MS/MS; type: physicochemical
[12] = Solubility as noted in the SAR discussion; type: physicochemical; details: compounds containing Br
[13] = Caco-2, apical to basolateral side
[14] = Caco-2, basolateral to apical side

Structure (SMILES): O=C(CCc1cc(Cl)c(Oc2ccncc2C(=O)N2CCN(C3CC3)c3ccccc32)cc1Cl)NCCOCCOCCOCCOCCOCCOCCOCCOCCNC(=O)CCc1cc(Cl)c(Oc2ccncc2C(=O)N2CCN(C3CC3)c3ccccc32)cc1Cl [Compound 3]
hypoglycemic efficacy [1]: moderate
hypoglycemic effect [2]: no significant effect

EC50 [3]: 0.55 nM
liver microsomal clearance (CLint) [4]: 1390 mL/min/g
EC50 [5]: 2.8 nM
efflux ratio at 95 min ([6]; Caco-2): 0.8
Papp A→B at 95 min [6, 13]: 0.55 ×10⁻⁶ cm/s
Papp B→A at 95 min [6, 14]: 0.43 ×10⁻⁶ cm/s
liver microsomal clearance (CLint) [7]: 1631 mL/min/g
melting point: 120 °C
increase of gallbladder area vs control [8]: 210%
Structure (SMILES): O=C(c1sccc1Oc1cc(Cl)ccc1Cl)N1CCN(C2CC2)c2ccccc21 [Compound 9a]

Structure (SMILES): O=C(c1cnccc1Oc1cc(Cl)ccc1Cl)N1CCN(C2CC2)c2ccccc21 [Compound 2, reference compound]
AUC0–120 min of blood glucose, signed change vs control (OGTT, Fig. 3B) ([9]; 50 mg/kg p.o.): -16%
decrease of blood glucose AUC vs control (OGTT) ([9]; 50 mg/kg p.o. 1.5 h before glucose 4 g/kg): 16%
Papp A to B [10, 13]: 6.75 10^−6 cm/s
Papp B to A [10, 14]: 5.58 10^−6 cm/s
solubility [11]: 0.441 µg/mL (≈ 1 µM)

EC50 [3]: 0.58 ± 0.11 nM
EC50 [5]: 3 ± 0.69 nM
solubility (in words) [12]: poor solubility
melting point: 107 °C
Structure (SMILES): O=C(c1sccc1Oc1cc(Cl)ccc1Br)N1CCN(C2CC2)c2ccccc21 [Compound 9c]

EC50 [3]: 76 ± 9.8 nM
melting point: 88 °C
Structure (SMILES): CN1CCN(C(=O)c2sccc2Oc2ccc(C(F)(F)F)cc2)c2ccccc21 [Compound 9h]
